The source of these data is article PMC4074815, “An Impermeant Ganetespib Analog Inhibits Extracellular Hsp90-Mediated Cancer Cell Migration that Involves Lysyl Oxidase 2-like Protein” (Cancers, 2014).

The IC50 is the concentration needed to halve the response being measured. Low readings indicate greater potency in that assay, high ones weaker potency in that assay.

This experiment has as its target T1, Hsp90 alpha (Homo sapiens, UniProt P07900).
T1 construct: gene HSP90AA1; Hsp90alpha recombinant enzyme (BPS Bioscience Hsp90α assay kit, Cat #50294)
The experiment in a line: fluorescence polarization competition with FITC-labeled geldanamycin. In kind it is binding. (In general: In fluorescence polarisation assays a small probe gives low polarisation when free and higher when bound to something large.)

With `CC(C)c1cc(-c2nnc(O)n2-c2ccc3c(ccn3CCNC(=O)CCCC[C@@H]3SC[C@@H]4NC(=O)N[C@@H]43)c2)c(O)cc1O` [STA-12-7191], the IC50 worked out at 0.062 µM.
